# Measurements published in US11083708B2, “Pharmacological restoration of epithelial or endothelial barrier integrity by agents blocking EPAC/RAP1 signaling” (The Regents of the University of California, priority 2018, dated 2021).
# “Also recorded” adds a separate entry of the source.
# Tests used:
# ET-induced footpad edema = experiment: Mouse footpad edema assay: ET injected into the footpad after systemic drug pre-treatment; format: in vivo, BALB/cJ mice; settings: for Inhibition of ET-induced footpad swelling (edema): i.p. pre-treatment 2-3 h before ET 0.15 pg/20 pl, ESI-09, AG1024, H89 10 mg/kg, SecinH3 250 ul of 2.5 mM, also 2 h post toxin, edema at 8-10 h or 18-24 h
# Excerpt: To verify these conclusions in vivo, a footpad swelling assay was turned to in which intra-dermal injection of ET results in robust quantifiable edema. […] The question of which branch(es) of the cAMP pathway contributed to EF-mediated edema was examined by comparing the relative abilities of H89 and ESI-09 to block ET-induced footpad swelling. […] It was concluded that the Epac/Rap1 pathway is the primary mediator of EF-induced edema. In addition, the effect of AG1024 [47], an inhibitor of insulin-like growth factor receptor (IGF-1R), was tested. […] These findings, together with the results described above provide a framework for how effector pathways contribute to cAMP-mediated disruption of Rab11-dependent membrane trafficking (See FIG. 6 for summary diagram).
# BALB/cJ mice (8-10 weeks old, female; Jackson Laboratories, Bar Harbor, Me.) were intraperitoneally injected with drugs. SecinH3 (TOCRIS #2849), AG1024 (Selleckchem, S1234), ESI-09 (TOCRIS #4773) or H89 (TOCRIS #2910), or with vehicle (70% DMSO in isotonic glucose for SecinH3, 30% DMSO in isotonic glucose for other drugs) 2-3 h prior to injection of ET (0.15 pg/20 pl, right footpad) or PBS (20 pl, left footpad), and in the case of SecinH3, also 2 h post toxin injection. ESI-09, AG1024 and H89 were administered at 10 mg/kg and SecinH3 was administered as 250 ul and 2.5 mM solution. Edema was assessed at 8-10 h, or 18-24 h by dorsal/plantar measurements using digital calipers.
# HBMECs = experiment: ET (EF+PA) intoxication of HBMEC cultures with drug co-treatment; anti-pan-cadherin stain of adherens junctions, Sec15-GFP punctae; format: cell-based, human; settings: EF and PA 0.2 pg/ml-0.4 pg/ml, co-treatment 24 hrs, Slit2 10 pg/ml, ESI-09 100 pM, H89 10 pM
# Description: The relative contributions of the Arf6, Epac, and PKA pathways to EF-induced inhibition of Rab11 was next examined, making use of HBMEC cultures. […] To inhibit the Arf6 pathway, cells were treated with Slit2, a secreted peptide that activates the Robo4 receptor to promote vascular stability via stimulation of the ArfGAP GIT [27]. […] Next, to determine the relative contribution of each branch of the cAMP pathway, EF-intoxicated cells were co-treated with ESI-09, an inhibitor specific for Epac, or with H89, a well-characterized inhibitor of PKA[45]. […] It was concluded that Epac/Rap1 is the predominant pathway mediating the cAMP induced effects of ET on exocyst-dependent junctional traffic in this setting.
# HBMEC cultures were maintained in DMEM (Corning; Manassas, Va.) containing 10% FBS, 1% Penicillin/streptomycin, 2 mM L-glutamine and were incubated in 37° C., 5% CO2 atmosphere. Cells were gently dislodged with 0.05% trypsin (Mediatech Inc.) and cultured on glass poly-D-lysine coated chamber slides (BD Falcon #354108). At about 80% confluence, EF and PA (0.2 pg/ml-0.4 pg/ml) were added to cells. […] After 24 hrs (FIGS. 5A-5H), cells were fixed for 10 mins at −20° C. in 100% Methanol, then washed with 0.1% Triton in PBS, Sec15GFP fluorescence was inspected directly, while Methanol-fixed cells were stained with a mouse anti pan-Cadherin antibody (Abcam, clone CH-19, 1/100). […]
SMILES,Inhibition of ET-induced footpad swelling (edema) (ET-induced footpad edema),Rescue of junctional pan-cadherin accumulation / adherens junctions (AJs) compromised by EF/ET (HBMECs),"Reversal of ET footpad swelling at both early (8 h) and late (18 h) times (ET-induced footpad edema; injected systemically in mice, 8 h and 18 h)",ET-induced edema in animals in which systemic pre-treatment induced observable symptoms of malaise (ET-induced footpad edema; SecinH3-pretreated mice showing malaise),"Tolerability of systemic pre-treatment with the drug (ET-induced footpad edema; SecinH3 i.p., 250 ul of 2.5 mM solution, some animals)"
CC(C)(C)c1cc(C=C(C#N)C#N)cc(Br)c1O [AG1024],"significant reduction of edema; also recorded: can be suppressed; also recorded: Strong, although less persistent, suppression of footpad swelling",,,,
CC(C)(C)c1cc(C(=O)/C(C#N)=N/Nc2cccc(Cl)c2)no1 [ESI-09],absolute inhibition of edema; also recorded: strong inhibition of footpad swelling; also recorded: can be suppressed,partially restore normal junctional traffic and visible AJs; also recorded: partially rescues pan-cadherin expression at AJs; also recorded: partially restore junctional barrier integrity,can reverse the footpad swelling,,
O=S(=O)(NCCNC/C=C/c1ccc(Br)cc1)c1cccc2cnccc12 [H89],little or no effect,no detectable rescue; also recorded: does not appreciably rescue junctional cadherin expression,,,
COc1nc(-c2ccc3c(c2)OCO3)n(-c2ccc(NC(=O)CSc3ccccc3)cc2)n1 [SecinH3],strongly inhibited; also recorded: blocked EF-induced edema; also recorded: can be suppressed,,,virtually abolished,observable symptoms of malaise
